Measured values taken from US11795135B2, “Prostacyclin compounds, compositions and methods of use thereof” (Insmed Incorporated, priority 2013, dated 2023).
Entries after “also recorded” stand apart in the source; their conditions may differ. Like-named read-outs stand apart in the source and are kept apart here.

Experiments:
[1] = system: esterase; assay: Esterase mediated conversion of treprostinil compounds to treprostinil; type: in vitro ADME; conditions: incubation with esterase at 37° C., 1 hour (FIG. 28, 30)
Experimental: A set of studies was conducted to determine the conversion kinetics to treprostinil of linear treprostinil compounds versus various branched treprostinil compounds. 0.4 mM of linear C8-TR or branched treprostinil compounds 2-dimethyl-1-propanyl-TR, 3,3-dimethyl-1-butanyl-TR, 2-ethyl-1-butanyl-TR, 5-nonanyl-TR, or 3-pentanyl-TR (see below for structures) were incubated with 0.2 U esterase at 37° C. for 1 hour, and the conversion (% of total) was calculated at 0.25, 0.5, 0.75, or 1 hour incubation time. • C8-TR (i.e., the compound of Formula (A) wherein
The conversion is relative to the C8-TR compound and conversion was measured at 1 hr. post esterase incubation. • C8-TR (i.e., the compound of Formula (A) wherein
Conversion was measured at 1 hr. post esterase incubation. • 4C7-TR (i.e., the compound of Formula (A) wherein

[2] = target: T1, EP2 prostanoid receptor (Homo sapiens, UniProt P43116); assay: GloSensor cAMP assay in CHO-K1 cells co-transfected with the EP2 receptor; type: cell-based; conditions: for ranking of activity of the treprostinil compounds: kinetic profile, 10 μM and 5 μM, FIG. 21
T1 construct: host or cells: CHO-K1
T1 sequence (P43116 whole entry): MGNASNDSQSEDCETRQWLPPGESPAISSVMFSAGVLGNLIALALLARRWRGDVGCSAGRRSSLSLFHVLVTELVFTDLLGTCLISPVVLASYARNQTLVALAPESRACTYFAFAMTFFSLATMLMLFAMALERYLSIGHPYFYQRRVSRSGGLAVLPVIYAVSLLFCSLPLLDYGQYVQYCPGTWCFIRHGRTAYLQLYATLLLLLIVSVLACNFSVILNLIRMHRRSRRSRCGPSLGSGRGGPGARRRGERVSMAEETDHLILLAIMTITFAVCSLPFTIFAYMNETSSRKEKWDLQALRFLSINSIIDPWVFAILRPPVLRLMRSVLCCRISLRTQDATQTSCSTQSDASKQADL
Description: cAMP is a second messenger involved in signal transduction of G-protein coupled receptors (GPCRs) acting through Gα-s and Gα-i proteins. Because the treprostinil receptor is a GPCR, the assay provides an indication of whether the respective prostacyclin compound (or metabolite thereof) binds its receptor and activates the GPCR cell signaling cascade. The GloSensorTM assay harnesses a genetically modified form of firefly luciferase into which a cAMP-binding protein moiety has been inserted. Upon binding of cAMP, a conformational change is induced leading to increased light output. The EP2 prostanoid receptor was co-transfected with the GloSensorTM plasmid (Promega) into CHO-K1 cells as follows. CHO-K1 cells were harvested when the monoloayer was at 50-90% confluence. First, cells were washed with 5 mL PBS. […] The media was aspirated, and the cell pellet was resuspended in 10 mL of growth media. Cell number was determined using a hemacytometer. Each well of a culture treated 96 well flat bottom plate (Costar, Cat #: 3917) was seeded with 1×10^4 cells per 100 μL antibiotic-free growth media. […] For small scale transfections of up to 20 wells, the pGLoSensor-22F cAMP plasmid (Promega, Cat #: E2301) (2 μg): (EP2) (10 ng) (Origene, Cat #: SC126558):pGEM-3Zf(+) (10 ng) (Promega, Cat #: P2271) ratio was diluted to a final concentration of 12.6 ng/μL (total plasmid) in Opti-MEM I reduced-serum medium (Life Technologies, Cat #: 1985062). Next, 6 μL of FuGENE HD transfection reagent (Promega, Cat #: E2311) was added to 160 μL of diluted plasmid and mixed carefully by gentle pipetting. The complex was incubated at room temperature for 0 to 10 minutes, and then 8 μL of the complex was added per well of a 96 well white assay plate (Costar, Cat #: 3917) and gently mixed without disturbing the cell monolayer. […] Following incubation, cells were treated and analyzed. For larger scale transfections, the aforementioned steps were scaled up accordingly, and cells were frozen following the last incubation. In order to prepare frozen transfected CHO-K1 cells, the media was aspirated from culture flasks and cells were rinsed with 5 mL PBS. […] Cell number was determined using a hemacytometer. The media was aspirated, and the cell pellet was resuspended in freezing media (Millipore, cat #: S-002-5F) at 2.5×10^6 cells/vial. Transfected cells were incubated overnight at -80° C. before transfer to liquid nitrogen for long term storage. […] In preparation for cAMP measurement, the cells were equilibrated with the GloSensor cAMP reagent prior to treatment. For equilibration, the medium was carefully removed from the individual well. Next, 100 μL of equilibration medium ([…] of Glosensor Reagent stock solution (Promega, Cat #: E291), 10% FBS (Hyclone, Cat #: SH30071.03) and 88% CO2 independent medium (Life Technologies, Cat #: 18045088)) was added per well of the 96-well plate, and added to the side of each well. The plate was then incubated for 2 hours at room temperature. A first pre-read measurement was taken using a microplate reader (MicroLumat Plus). Plates were incubated for an additional 10 minutes at room temperature, followed by a second pre-read measurement. […] Following treatment, each plate was read every 5 minutes for the duration of the assay using a microplate reader (MicroLumat Plus). In order to determine the fold change in cAMP relative to the control, the transfection efficiency was first determined by dividing the second pre-read measurement by the average of the corresponding pre-read measurements. Next, the normalized relative light units (RLUs) of the samples were determined by dividing the plate read measurement by the transfection efficiency. The fold change in cAMP relative to the control was then determined by dividing the normalized RLU of the samples by the normalized RLU of the control. The cAMP assay was validated using free treprostinil. […] Luminescence was then measured at room temperature. […]

[3] = system: CHO-K1 cells; assay: CHO-K1 cell proliferation assay (Presto Blue)
Experimental: CHO-K1 cells were harvested when the cell monolayer was 50-90% confluent (use passage 4-11). Media was aspirated out of the flask, and cells were rinsed with 2 mL of F12 media. Next, 1 mL of pre-warmed (37° C.) 0.25% trypsin-EDTA (Life Technologies, Cat #: 25300054) was added, and cells were dislodged from the flask by tapping it on the side. Complete growth media (F12 (Life Technologies, Cat #: 31765092)+10% FBS (Hyclone, Cat #: SH30071.03)+1× Pen-Strep (Life Technologies, cat #15140-122) was then added at a volume of 10 mL. Cells were centrifuged at 250×g for 5 minutes at room temperature, and the media was aspirated. The cell pellet was resuspended in 10 mL complete growth media. Cell number was determined using a hemacytometer. Cells were then seeded at 2000 cells per well of a 96-well plate in 100 μL of complete growth media. The plate was incubated overnight at 37° C. and 5% CO2 in a water-jacketed incubator.
The next day, 80 μL of fresh complete media was added to each well, and CHO-K1 cells were challenged with treprostinil compound and composition treatments. The working solutions were prepared at 10× concentration, and following 2 fold serial dilutions, 20 μL aliquots were added per well to arrive at a final 1× concentration. Following a 48 hour incubation at 37° C. and 5% CO2 in a water-jacketed incubator, the inhibitory effect on cell proliferation was determined. Plates were analyzed using 20 μL of Presto Blue reagent (Life Technologies, cat #: A13262) per well. The reagent was mixed, and plates were incubated for 1 hour at 37° C. and 5% CO2 in a water-jacketed incubator. Plates were read using either a CytoFluor Series 4000 (PerSeptive BioSystems) or Synergy Neo microplate reader (BioTek) with emission λ: 590 nm and excitation λ: 560 nm.
at concentrations ranging from 0.55 μM to 125 μM. Following a 48 hour incubation period, the inhibitory effect of the treprostinil derivative compositions on cell proliferation was determined.
C2, C3, C4, C5, C6, C8, C10 or Cu straight chain alkyl, at dosages ranging from 0.098 μM to 25 μM. Following a 48 hour incubation period, the inhibitory effect on cell proliferation was determined.
Following a 72 hour incubation period, the inhibitory effect on cell proliferation was determined. Following a 48 hour incubation period, the inhibitory effect on cell proliferation was determined.
Similarly, CHO-K1 cells were challenged with the treprostinil compositions T612 (R2=C2), T613 (R2=C8) at concentrations ranging from 1.41 μM to 180 μM.

[4] = system: Rat alveolar NR8383 cells; assay: NR8383 cell proliferation assay (Presto Blue); type: cell-based
Experimental: Rat alveolar NR8383 cells were harvested when the monolayer was 50-90% confluent (use passage 5-11). Because the NR8383 cells include both adherent and non-adherent cells, media was transferred to a 50 mL Falcon tube. To obtain the cells remaining in the flask, 2 mL of plain media was added, and the remaining cells were scraped out of the 75 cm^2 flask with a cell scraper and added to the 50 mL tube. […] SH30071.03)+1×Pen-Strep (Life Technologies, cat #: 15410-122)). Cell number was determined using a hemacytometer. […] Measurements and calculations were made as described above for the CHO-K1 cells.

[5] = Treprostinil alkyl ester conversion to treprostinil in rat lung tissue homogenate; type: in vitro ADME; conditions: 37° C., 200 nM, 4 hours, 10 mg/mL of protein
Experimental: Treprostinil alkyl ester conversion to treprostinil was also measured in the presence of rat, dog and monkey lung tissue homogenate at 37° C. Here, data were calculated based on fit of exponential increase to the maximum (experiments performed in duplicate). The results of this study are provided below in Table 2A and FIG. 37. […] Both FIG. 37 experiments (left and right graphs) were performed in duplicate and the lines represent nonlinear exponential regression assuming 1 phase decay.

[6] = Particle size characterization of treprostinil compositions (QELS); type: physicochemical; conditions: particles of compositions comprising the alkyl ester, FIG. 2
Experimental: All particle size measurements were performed using a Wyatt Technology Mobius™ Zeta Potential/Particle Sizing Instrument in Quasi-elastic light scattering (QELS) mode. Composition aliquots were diluted 10-fold in pre-filtered (0.02 μm pore filter) ultrapure of deionized H2O. Light scattering data was collected and converted into particle size and size distribution using Dynamics® v. […] Reported average particle size diameter is based on the cumulants model, which mathematically fits particle diffusion constants (determined by the raw scattering intensities of particles in a suspension) to obtain the particle size mean and a distribution of particle sizes around the mean diameter.
Particle uniformity was determined using the software-calculated polydispersity (% PD). Polydispersity is defined as the standard deviation of the particle size distribution from the mean particle size value. % PD normalizes the polydispersity to the mean diameter by dividing by the mean size and multiplying by 100. These parameters indicate whether a particle suspension has one or more size populations of particles (monomodal versus multimodal). […]
Dynamics® polydispersity parameter represents a monodisperse population of particles if % PD≤15. A calculated % PD≥57% represents a polydisperse population of particles.

[7] = unformulated alkyl esters, 48 hour incubation
[8] = unformulated alkyl esters, 72 hour incubation

Compound | esterase mediated conversion rate to treprostinil (comparison) [1] | Effect on cell proliferation, CHO-K1 Cells (0.195 μM-25 μM) [3, 7] | Effect on cell proliferation, NR8383 Cells (0.195 μM-25 μM) [4, 8] | also measured
CCCCCC(O)CCC1C(O)CC2Cc3c(cccc3OCC(=O)OC(CCC)CCCC)CC21 (mixture of isomers) [Compound 4C8-TR] | slower conversion rate than the linear compound C8-TR; also recorded: slower conversion rate than the symmetrical compounds (4C7-TR and 5C9-TR) | – | – | –
CCCCCC[C@@H](C)OC(=O)COc1cccc2c1C[C@H]1C[C@@H](O)[C@H](CC[C@@H](O)CCCCC)[C@H]1C2 [(R)-2C8-TR] | no significant difference between the conversion rates of R and S isomers | – | – | –
CCCCCC[C@H](C)OC(=O)COc1cccc2c1C[C@H]1C[C@@H](O)[C@H](CC[C@@H](O)CCCCC)[C@H]1C2 [(S)-2C8-TR] | no significant difference between the conversion rates of R and S isomers | – | – | –
CCCCC[C@H](O)CC[C@@H]1[C@H]2Cc3cccc(OCC(=O)OC(CCC)CCC)c3C[C@H]2C[C@H]1O [Compound 4C7-TR] | slower conversion rate than the linear compound C8-TR | – | – | –
CCCCC[C@H](O)CC[C@@H]1[C@H]2Cc3cccc(OCC(=O)OC(CCCC)CCCC)c3C[C@H]2C[C@H]1O [Compound 5C9-TR, 5-nonanyl-treprostinil] | slower conversion rate than the linear compound C8-TR | – | – | ranking of activity of the treprostinil compounds [2]: C12-TR>C14-TR>5-nonanyl-TR>C16-TR; esterase mediated conversion rate to treprostinil (comparison) ([1]; listed as 5-nonanyl-TR): slower conversion rate than linear C8-TR
CCCCC[C@H](O)CC[C@@H]1[C@H]2Cc3cccc(OCC(=O)OCC)c3C[C@H]2C[C@H]1O [Compound C2-TR, treprostinil ethyl ester] | – | No detectable cell inhibition | No detectable cell inhibition | –
CCCCC[C@H](O)CC[C@@H]1[C@H]2Cc3cccc(OCC(=O)OCCC)c3C[C@H]2C[C@H]1O [Compound C3-TR] | – | No detectable cell inhibition | No detectable cell inhibition | –
CCCCC[C@H](O)CC[C@@H]1[C@H]2Cc3cccc(OCC(=O)OCCCC)c3C[C@H]2C[C@H]1O [Compound C4-TR] | – | No detectable cell inhibition | No detectable cell inhibition | –
CCCCCCOC(=O)COc1cccc2c1C[C@H]1C[C@@H](O)[C@H](CC[C@@H](O)CCCCC)[C@H]1C2 [Compound C6-TR] | – | No detectable cell inhibition | No detectable cell inhibition | –
CCCCCCCCCCCCCCOC(=O)COc1cccc2c1C[C@H]1C[C@@H](O)[C@H](CC[C@@H](O)CCCCC)[C@H]1C2 [Compound C14-TR, tetradecyl-treprostinil] | – | – | – | Rate of treprostinil alkyl ester conversion [5]: 0.4 nmOL/h * g of protein; polydispersity (% PD) [6]: around 15%; ranking of activity of the treprostinil compounds [2]: C12-TR>C14-TR>5-nonanyl-TR>C16-TR
treprostinil decyl ester [Compound C10-TR] | – | – | – | polydispersity (% PD) [6]: around 15%; duration of cAMP levels compared with free treprostinil and the C6, C8, and C12 derivatives ([2]; 5 μM, FIG. 4 and FIG. 5): sustained significantly longer; cAMP levels compared with free treprostinil ([2]; 10 μM, composition, FIG. 3A): equivalent to free treprostinil; cAMP levels sustained for ([2]; 10 μM, composition, FIG. 3A): at least 6 hours; cAMP response compared with the response induced by free treprostinil ([2]; compositions, 5 μM, FIG. 4): greater than or equivalent to the response induced by free treprostinil; cAMP response level ([2]; unformulated compounds, 5 μM, FIG. 5): equivalent to free treprostinil; Effect on cell proliferation, CHO-K1 Cells (0.195 μM-25 μM) [3]: No detectable cell inhibition; Effect on cell proliferation, NR8383 Cells (0.195 μM-25 μM) [4]: No detectable cell inhibition
